Test [1] concerns Streptococcus pneumoniae. In words: Antimicrobial activity against penicillin-intermediate Streptococcus pneumoniae 3243 by CLSI method. In kind it is functional.
Test [2] has as its system Streptococcus pneumoniae. In words: Antimicrobial activity against Streptococcus pneumoniae serotype 19A. In kind it is functional.

Structures are written as SMILES. Values after ≈ are worked out from the molar mass of the structure shown.

As usually defined, the MIC is the smallest concentration in the dilution series that meets the test's criterion for growth inhibition. High values mean weaker potency, low ones greater potency. For the molecule `C[C@@H](O)[C@H]1C(=O)N2C(C(=O)O)=C(SCCNC=N)C[C@H]12` [IMIPENEM ANHYDROUS], inhibition of growth in test [1] (MIC) required 0.016 µg/mL (≈ 0.0534 µM). The same measure, in the same setting: under `CO/N=C(\C(=O)N[C@@H]1C(=O)N2C(C(=O)O)=C(COC(N)=O)CS[C@H]12)c1ccco1` [CEFUROXIME] stands 0.25 µg/mL (≈ 0.589 µM). By MIC90 is commonly meant the lowest concentration that inhibits either 90% of growth or 90% of the strains tested, depending on the study. A high value points to lower susceptibility. In the case of `C[C@@H](O)[C@H]1C(=O)N2C(C(=O)O)=C([C@H]3CCCO3)S[C@H]12` [FAROPENEM], the minimum inhibitory concentration (MIC) in test [1] was determined as 0.125 µg/mL (≈ 0.438 µM). The same molecule had an MIC90 in test [2] of 1 µg/mL (≈ 3.5 µM). With `CC1(C)S[C@@H]2[C@H](NC(=O)Cc3ccccc3)C(=O)N2[C@H]1C(=O)O` [PENICILLIN G], in test [1], the MIC was 0.25 µg/mL (≈ 0.748 µM).

As to `CC1(C)S[C@@H]2[C@H](NC(=O)[C@H](N)c3ccc(O)cc3)C(=O)N2[C@H]1C(=O)O` [AMOXICILLIN], the MIC in test [1] was 0.06 µg/mL (≈ 0.164 µM).

The values are drawn from ChEMBL document CHEMBL1649182, “Binding of faropenem and other beta-lactam agents to penicillin-binding proteins of pneumococci with various beta-lactam susceptibilities” (Antimicrob Agents Chemother, 2009).
